Active and inactive are the calls of the source. The calls are words filed in the database; no cut-off is given here.
Legend:
Toll-like receptor 8 = molecular target: T1, Toll-like receptor 8 (Homo sapiens, UniProt Q9NR97); test: Agonist activity at TLR8 (unknown origin) expressed in human U2OS cells by luciferase reporter assay; type: cell-based
T1 sequence (Q9NR97 whole entry): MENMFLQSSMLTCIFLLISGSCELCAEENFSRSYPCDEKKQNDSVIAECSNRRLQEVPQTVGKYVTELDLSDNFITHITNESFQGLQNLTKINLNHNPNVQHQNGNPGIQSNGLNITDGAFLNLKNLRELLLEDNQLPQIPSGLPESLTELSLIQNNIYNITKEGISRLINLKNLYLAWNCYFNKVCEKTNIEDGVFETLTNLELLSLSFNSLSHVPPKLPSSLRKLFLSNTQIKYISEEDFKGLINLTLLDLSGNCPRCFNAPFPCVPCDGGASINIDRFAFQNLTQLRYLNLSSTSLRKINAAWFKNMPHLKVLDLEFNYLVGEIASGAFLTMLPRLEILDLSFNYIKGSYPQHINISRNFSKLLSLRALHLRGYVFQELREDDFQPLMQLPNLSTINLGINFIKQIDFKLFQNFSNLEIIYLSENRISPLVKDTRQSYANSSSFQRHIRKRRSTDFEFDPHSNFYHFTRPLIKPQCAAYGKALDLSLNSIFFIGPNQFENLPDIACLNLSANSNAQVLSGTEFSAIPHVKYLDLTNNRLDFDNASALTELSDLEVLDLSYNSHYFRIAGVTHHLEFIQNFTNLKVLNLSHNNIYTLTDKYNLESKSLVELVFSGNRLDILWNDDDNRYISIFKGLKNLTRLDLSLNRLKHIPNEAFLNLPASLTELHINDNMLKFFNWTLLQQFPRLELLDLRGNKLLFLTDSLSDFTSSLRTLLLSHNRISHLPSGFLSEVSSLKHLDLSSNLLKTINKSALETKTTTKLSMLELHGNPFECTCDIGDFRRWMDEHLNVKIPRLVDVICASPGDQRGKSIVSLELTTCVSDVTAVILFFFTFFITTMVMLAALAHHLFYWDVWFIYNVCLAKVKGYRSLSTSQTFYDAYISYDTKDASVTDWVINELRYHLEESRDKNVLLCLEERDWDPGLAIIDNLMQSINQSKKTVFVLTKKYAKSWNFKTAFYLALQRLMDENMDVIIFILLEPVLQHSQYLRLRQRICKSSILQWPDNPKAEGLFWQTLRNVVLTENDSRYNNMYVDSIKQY

[1] = Oral bioavailability in rat; type: ADME, organism-based; details: in vivo
[2] = Toxicity in male rat assessed as NOAEL after 8 weeks; details: in vivo
PBMC = test: Immunomodulatory activity in human PBMC assessed as IFNalpha production incubated for 6 days in presence of allergen house dust mite; type: functional, cell-based; details: time 6.0 day
[3] = Tmax in rat after intranasal administration; type: ADME; details: in vivo, inhaled or intranasal
[4] = molecular target: T2, Toll-like receptor 7 (Macaca fascicularis) (UniProt B3Y652); test: In vivo target occupancy at TLR7 in cynomolgus monkey assessed as fold increase in OAS2 mRNA expression in nasal scrape at 3 ng/kg administered intranasally incubated for 24 hrs by TaqMan analysis (reference value: 1); type: functional
T2 sequence (whole entry): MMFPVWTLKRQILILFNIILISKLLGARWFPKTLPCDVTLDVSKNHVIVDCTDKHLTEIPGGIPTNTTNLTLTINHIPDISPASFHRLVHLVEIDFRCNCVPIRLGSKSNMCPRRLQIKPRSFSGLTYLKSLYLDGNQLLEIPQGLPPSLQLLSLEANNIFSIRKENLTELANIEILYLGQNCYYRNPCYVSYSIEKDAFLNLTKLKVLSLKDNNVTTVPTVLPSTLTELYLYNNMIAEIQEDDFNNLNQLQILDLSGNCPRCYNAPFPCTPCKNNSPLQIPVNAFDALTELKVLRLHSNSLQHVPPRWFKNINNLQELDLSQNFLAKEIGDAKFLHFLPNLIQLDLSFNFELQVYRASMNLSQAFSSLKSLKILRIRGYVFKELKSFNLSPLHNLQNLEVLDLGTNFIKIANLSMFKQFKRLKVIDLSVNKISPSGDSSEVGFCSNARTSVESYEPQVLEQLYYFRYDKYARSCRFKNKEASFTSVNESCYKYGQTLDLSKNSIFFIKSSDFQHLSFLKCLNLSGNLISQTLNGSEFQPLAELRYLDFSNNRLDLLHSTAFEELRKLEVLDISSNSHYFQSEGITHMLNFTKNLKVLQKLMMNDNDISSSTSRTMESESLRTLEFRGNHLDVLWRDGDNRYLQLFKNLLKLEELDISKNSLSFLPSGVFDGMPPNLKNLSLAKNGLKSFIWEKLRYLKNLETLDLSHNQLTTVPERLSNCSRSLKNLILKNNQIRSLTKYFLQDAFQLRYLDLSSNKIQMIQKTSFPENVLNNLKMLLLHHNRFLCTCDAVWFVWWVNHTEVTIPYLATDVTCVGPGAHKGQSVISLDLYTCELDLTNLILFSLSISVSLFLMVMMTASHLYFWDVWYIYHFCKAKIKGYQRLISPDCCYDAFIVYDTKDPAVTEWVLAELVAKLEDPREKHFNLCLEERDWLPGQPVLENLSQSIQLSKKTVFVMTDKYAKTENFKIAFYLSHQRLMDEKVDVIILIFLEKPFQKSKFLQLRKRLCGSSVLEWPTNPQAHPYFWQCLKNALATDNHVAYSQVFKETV

Toll-like receptor 7 = molecular target: T3, Toll-like receptor 7 (Macaca fascicularis, UniProt B3Y652); test: Agonist activity at TLR7 in cynomolgus monkey whole blood assessed as induction of IFNalpha production; type: tissue-based
T3 sequence (B3Y652 whole entry): T2 sequence (whole entry)

[5] = Toxicity in female rat assessed as NOAEL after 8 weeks; details: in vivo
[6] = molecular target: T2, Toll-like receptor 7 (Macaca fascicularis); test: In vivo target occupancy at TLR7 in cynomolgus monkey assessed as fold increase in OAS1 mRNA expression in nasal scrape at 3 ng/kg administered intranasally incubated for 24 hrs by TaqMan analysis (reference value: 1.2); type: functional
[7] = Ocular toxicity in monkey at 10 ug/ml; design: species or system Macaca mulatta; details: rhesus monkey, in vivo; dose 10 µg/ml

EC50 (Toll-like receptor 8): 20 µM
bioavailability [1]: 1%
Tmax [3]: ≤ 5 min
fold change (FC) [4]: 128
EC50 (Toll-like receptor 7): 0.0794 µM
fold change (FC) [6]: 38.9
SMILES: CCC[C@H](C)Oc1nc(N)c2[nH]c(=O)n(CCCCCN3CCCCC3)c2n1 [GSK-2245035]
NOAEL at 1344 h [2]: 0.406 mg/kg
Activity (PBMC): Active
NOAEL at 1344 h [5]: 0.698 mg/kg
Activity [7]: Non-Toxic
